The values that follow are results of earlier work, collected in patent US20110159118A1, “Screening Method (Metabolite Grid) for Therapeutic Extracts and Molecules for Diabetes” (priority 2000, published 2011).

For one data set, the system named is hyperglycemic rats. The conditions noted are these: effect comparable to metformin.
In data set [1] the test system is streptozotocin-diabetic mice. As to conditions: doses of 3.4-13.4 mg/kg, 6 h after the administration.

Consider `COc1cc(O)cc2c1C(=O)C(O)(Cc1ccc(O)cc1)O2` (stereo not shown) [Marsupsin, marsupsin], for which the blood glucose level entry in the data set with hyperglycemic rats was “significantly lowered”. Regarding gymnemic acid IV [Gymnemic acids], in data set [1], the “reduced the blood glucose levels” value is on record as 13.5-60.0%. Take `Oc1cc(O)c2c(c1)O[C@H](c1ccc(O)c(O)c1)[C@H](O)C2` [(−)-Epicatechin, (−)-epicatechin]: in the data set on alloxan diabetic rats (30 mg/kg, i.p., twice daily for 3 days, begun 92 hr after alloxan), the “blood glucose levels, control versus treated rats” value was “no significant difference”. Further, the hyperglycemia result with alloxan diabetic rats (given before or within 24 hr after the dose of alloxan) was “reverse hyperglycemia”.
